The record followed here is US20240246913A1, “2-CARBOXYL-INDOLE INHIBITORS OF METALLO-BETA-LACTAMASES” (Oxford University Innovation Limited, priority 2021, published 2024).

Where two headings read alike, the source gives them in different places.

One data set has as its target VIM-2 (Escherichia coli, UniProt Q5U7L7). Kind of data set: MBL inhibition, FC-5 fluorescence assay, VIM-2. The format is biochemical. The protocol:
(§1) Inhibitors were tested using a panel of the clinically relevant B1 MBLs (NDM-1, VIM-1, -2 and IMP-1). Activities were assayed by monitoring the release of a fluorophore following the enzymatic breakdown of the cephalosporin FC-5 (https://pubs.acs.org/doi/abs/10.1021/jm400769b). FC-5 assays were conducted in clear bottomed 384 black well microplates (Greiner); the initial rate of reaction was assessed by monitoring the fluorescence intensity (λex=380 nm and λem=460 nm) using a Pherstar FS (BMG LabTech) plate reader. Initial rates of reaction were determined and dose-response analyses conducted in GraphPad Prism. Dose-response curves were fitted using the log(inhibitor) vs normalized response—variable slope model of GraphPad Prism 12. Each concentration point for routine screening was conducted with 4 intra-plate replicates.

For the next data set, the target named is VIM-1 (Pseudomonas aeruginosa, UniProt A0A0F7KYQ8). Kind of data set: MBL inhibition, FC-5 fluorescence assay, VIM-1. It counts as biochemical. The protocol:
as §1

For a further data set, the target named is IMP-1 (Serratia marcescens, UniProt P52699). Kind of data set: MBL inhibition, FC-5 fluorescence assay, IMP-1. The format is biochemical. The protocol:
as §1

Data set [1] can be described thus: Plasma protein binding, equilibrium dialysis, human plasma. The format is in vitro ADME. To be noted: pH 7.4, equilibrium dialysis (RED) 4 hours at 37° C., read-out: Plasma protein binding, fu, Human. The protocol:
The fraction of unbound compound (fu) in plasma from human or other animal species was determined by equilibrium dialysis at 37° C. for 4 hours using the Rapid Equilibrium Dialysis (RED) device (ThermoFisher Scientific). The test compound at a concentration of 10 μM was added to plasma and dialyzed against isotonic phosphate buffer (67 mM, pH 7.4) over 4 hours at 37° C. After dialysis, compound concentrations in buffer and plasma were quantified by LC-MS/MS. In parallel the stability of the compound in plasma was determined by incubating drug-spiked plasma (10 μM) at 37° C. for 4 hours, meanwhile the control plasma sample was kept in the freezer. The concentration of the compound in both samples was quantified by LC-MS/MS (Waters Corp, Milford, MA, USA).
A general note: In equilibrium dialysis free small molecules cross a membrane that holds back macromolecules.

The target of a further data set is NDM-1 (Klebsiella pneumoniae, UniProt C7C422). Nature of the data set: MBL inhibition, FC-5 fluorescence assay, NDM-1. It counts as biochemical. The method, then:
as §1

A further data set relates to Escherichia coli NDM-1. Kind of data set: Antibiotic susceptibility testing (MIC), EC NDM-1. The following applies: agar or broth dilution (CLSI/EUCAST). It counts as cell-based. The method, then:
(§2) Antibiotic susceptibility testing was performed using the agar or broth dilution method, in line with the Clinical and Laboratory Standards Institute (CLSI) and European Committee on Antimicrobial Susceptibility Testing (EUCAST) requirements.

In another data set the test system is Escherichia coli NDM-7. Nature of the data set: Antibiotic susceptibility testing (MIC), EC NDM-7. The format is cell-based. To be noted: agar or broth dilution (CLSI/EUCAST). The method, then: as §2
Data set [2] has as its system Acinetobacter baumannii NDM-1. Kind of data set: Antibiotic susceptibility testing (MIC), AB NDM-1. The format is cell-based. To be noted: agar or broth dilution (CLSI/EUCAST). The method, then: as §2
The mark [3] stands for this setting: FC-5 cephalosporin substrate, ranges of obtained pIC50, read-out: pIC50 VIM-2 (converted).
The mark [4] stands for this setting: FC-5 cephalosporin substrate, ranges of obtained pIC50, read-out: pIC50 VIM-1 (converted).
Where [5] appears, read: FC-5 cephalosporin substrate, fluorescence, ranges of obtained pIC50, read-out: pIC50 IMP-1 (converted).
Setting [6] is: FC-5 cephalosporin substrate, fluorescence, ranges of obtained pIC50, read-out: pIC50 NDM-1 (converted).

Sequence of NDM-1 (C7C422 29-270, looked up, species assumed): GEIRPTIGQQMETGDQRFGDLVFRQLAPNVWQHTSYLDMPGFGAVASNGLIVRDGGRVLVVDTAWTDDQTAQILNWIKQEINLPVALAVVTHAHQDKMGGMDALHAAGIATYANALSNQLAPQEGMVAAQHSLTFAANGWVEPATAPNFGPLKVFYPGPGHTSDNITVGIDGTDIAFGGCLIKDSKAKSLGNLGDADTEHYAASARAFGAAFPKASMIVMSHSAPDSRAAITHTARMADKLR
Sequence of IMP-1 (P52699 19-246, looked up, species assumed): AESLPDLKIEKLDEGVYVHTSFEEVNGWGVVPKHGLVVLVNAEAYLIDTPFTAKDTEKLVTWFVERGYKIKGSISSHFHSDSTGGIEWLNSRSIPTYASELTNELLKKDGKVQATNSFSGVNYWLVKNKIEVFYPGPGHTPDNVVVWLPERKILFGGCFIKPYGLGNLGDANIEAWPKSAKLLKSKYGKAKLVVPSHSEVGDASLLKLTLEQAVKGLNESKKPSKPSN

Take `CC(c1cccc2c(-c3ccc(CS(C)(=O)=O)c(F)c3)c(C(=O)O)[nH]c12)n1cc(CNS(N)(=O)=O)nn1` (stereo not drawn) [IC-8, 3-(3-Fluoro-4-((methylsulfonyl)methyl)phenyl)-7-(1-(4-((sulfamoylamino)methyl)-1H-1,2,3-triazol-1-yl)ethyl)-1H-indole-2-carboxylic acid]: the IC50 at VIM-2 (setting [3]) is 1 to 10 nM; on VIM-1 (setting [4]), over 10 nM; at IMP-1 (setting [5]), over 10 nM; at NDM-1 (setting [6]), over 10 nM. In data set [1], the fraction unbound at 4 h, 10 μM lay in the range of 0.05 to 0.25.

As to `COc1cc(-c2c(C(=O)O)[nH]c3c([C@H](C)N4CC5(CC(CN)C5)OC4=O)cccc23)ccn1` (stereo partly drawn) [IC-20, 7-((1S)-1-(2-(aminomethyl)-6-oxo-5-oxa-7-azaspiro[3.4]octan-7-yl)ethyl)-3-(2-methoxypyridin-4-yl)-1H-indole-2-carboxylic acid], the IC50 at VIM-2 (setting [3]) was 0.1 to 1 nM; on VIM-1 (setting [4]), 1 to 10 nM; at IMP-1 (setting [5]), over 10 nM; on NDM-1 (setting [6]), 0.1 to 1 nM. The “MIC values EC NDM-1” value against Escherichia coli NDM-1 was “A (A = MIC values ≤ 1)”. For the same compound, in the data set on Escherichia coli NDM-7, the “MIC values EC NDM-7” value is “A (A = MIC values ≤ 1)”. Moreover, the “MIC values AB NDM-1” value in data set [2] is “B (B MIC values 2 ÷ 8)”.

For `C[C@@H](c1cccc2c(-c3ccc(CN4CCOCC4)nc3)c(C(=O)O)[nH]c12)n1cc(CN2CC(N)C2)oc1=O` [IC-52, 7-[(1S)-1-{5-[(3-aminoazetidin-1-yl)methyl]-2-oxo-2,3-dihydro-1,3-oxazol-3-yl}ethyl]-3-{6-[(morpholin-4-yl)methyl]pyridin-3-yl}-1H-indole-2-carboxylic acid], the IC50 on VIM-2 (setting [3]) is 1 to 10 nM; on VIM-1 (setting [4]), over 10 nM; at IMP-1 (setting [5]), over 10 nM; on NDM-1 (setting [6]), under 0.1 nM. Also, the “MIC values EC NDM-1” value against Escherichia coli NDM-1 is “B (B MIC values 2 ÷ 8)”. The “MIC values EC NDM-7” value against Escherichia coli NDM-7 is on record as “B (B MIC values 2 ÷ 8)”. In addition, the “MIC values AB NDM-1” value in data set [2] is “C (C = MIC values > 8)”.

For `C[C@@H](c1cccc2c(-c3ccc(CS(C)(=N)=O)c(F)c3)c(C(=O)O)[nH]c12)n1cc(CN2CC(N)C2)oc1=O` (stereo partly drawn) [IC-53, 7-[(1S)-1-{5-[(3-aminoazetidin-1-yl)methyl]-2-oxo-2,3-dihydro-1,3-oxazol-3-yl}ethyl]-3-(3-fluoro-4-{[imino(methyl)oxo-λ^6-sulfanyl]methyl}phenyl)-1H-indole-2-carboxylic acid], the IC50 was 1 to 10 nM at VIM-2 (setting [3]), 1 to 10 nM on VIM-1 (setting [4]), over 10 nM at IMP-1 (setting [5]) and under 0.1 nM on NDM-1 (setting [6]). Further, the “MIC values EC NDM-1” value against Escherichia coli NDM-1 is recorded as “A (A = MIC values ≤ 1)”. Also, the “MIC values EC NDM-7” value in the data set with Escherichia coli NDM-7 is “A (A = MIC values ≤ 1)”. In addition, the “MIC values AB NDM-1” value in data set [2] is listed as “B (B MIC values 2 ÷ 8)”.

As to `C[C@@H](c1cccc2c(-c3ccc(CS(C)(=O)=O)c(F)c3)c(C(=O)O)[nH]c12)N1CC2(CNC2)OC1=O` [IC-65, (S)-3-(3-fluoro-4-((methylsulfonyl)methyl)phenyl)-7-(1-(6-oxo-5-oxa-2,7-diazaspiro[3.4]octan-7-yl)ethyl)-1H-indole-2-carboxylic acid], the IC50 on VIM-2 (setting [3]) was 0.1 to 1 nM; on VIM-1 (setting [4]), 1 to 10 nM; at IMP-1 (setting [5]), over 10 nM; on NDM-1 (setting [6]), 0.1 to 1 nM. For the same compound, in the data set on Escherichia coli NDM-1, the “MIC values EC NDM-1” value is listed as “A (A = MIC values ≤ 1)”. Moreover, in the data set with Escherichia coli NDM-7, the “MIC values EC NDM-7” value is reported as “A (A = MIC values ≤ 1)”. Besides, in data set [2], the “MIC values AB NDM-1” value is “B (B MIC values 2 ÷ 8)”.

For the compound `CC(Nc1ncc(CCCN)o1)c1cccc2c(-c3ccc(CS(C)(=O)=O)c(F)c3)c(C(=O)O)[nH]c12` (stereo not drawn) [IC-93, 7-(1-((5-(3-Aminopropyl)oxazol-2-yl)amino)ethyl)-3-(3-fluoro-4-((methylsulfonyl)methyl)phenyl)-1H-indole-2-carboxylic acid], the IC50 is 1 to 10 nM at VIM-2 (setting [3]), over 10 nM on VIM-1 (setting [4]), over 10 nM at IMP-1 (setting [5]) and 1 to 10 nM at NDM-1 (setting [6]).

Regarding `CC(Nc1ncc(CCN)o1)c1cccc2c(-c3ccc(CS(C)(=O)=O)c(F)c3)c(C(=O)O)[nH]c12` (stereo not drawn) [IC-94, 7-(1-((5-(2-aminoethyl)oxazol-2-yl)amino)ethyl)-3-(3-fluoro-4-((methylsulfonyl)methyl)phenyl)-1H-indole-2-carboxylic acid], the IC50 was 1 to 10 nM at VIM-2 (setting [3]), over 10 nM on VIM-1 (setting [4]), over 10 nM at IMP-1 (setting [5]) and 1 to 10 nM on NDM-1 (setting [6]).

Take `CC(OC(=O)Nc1ccc(CN)cc1)c1cccc2c(-c3ccc(CS(C)(=O)=O)c(F)c3)c(C(=O)O)[nH]c12` (stereo not drawn) [IC-96, 7-(1-(((4-(Aminomethyl)phenyl)carbamoyl)oxy)ethyl)-3-(3-fluoro-4-((methylsulfonyl)methyl)phenyl)-1H-indole-2-carboxylic acid]: the IC50 on VIM-2 (setting [3]) was 1 to 10 nM; at VIM-1 (setting [4]), over 10 nM; at IMP-1 (setting [5]) it was over 10 nM; on NDM-1 (setting [6]) it was 1 to 10 nM.

With `CC(c1cccc2c(-c3ccc(CS(C)(=O)=O)c(F)c3)c(C(=O)O)[nH]c12)N1C(=O)c2cc(O)c(O)cc2C1=O` (stereo not drawn) [IC-98, 7-[1-(5,6-Dihydroxy-1,3-dioxo-2,3-dihydro-1H-isoindol-2-yl)ethyl]-3-[3-fluoro-4-(methanesulfonylmethyl)phenyl]-1H-indole-2-carboxylic acid], the IC50 on VIM-2 (setting [3]), at VIM-1 (setting [4]), on IMP-1 (setting [5]) and at NDM-1 (setting [6]) was over 10 nM throughout.

Consider `CC(NC(=O)Oc1ccc(CN)cc1)c1cccc2c(-c3ccc(CS(C)(=O)=O)c(F)c3)c(C(=O)O)[nH]c12` (stereo not drawn) [IC-101, 7-(1-(((4-(aminomethyl)phenoxy)carbonyl)amino)ethyl)-3-(3-fluoro-4-((methylsulfonyl)methyl)phenyl)-1H-indole-2-carboxylic acid], for which the IC50 was 1 to 10 nM against VIM-2 (pIC50 VIM-2, FC-5 cephalosporin substrate, ranges of obtained pIC50); over 10 nM against VIM-1 (pIC50 VIM-1, FC-5 cephalosporin substrate, ranges of obtained pIC50); over 10 nM against IMP-1; 1 to 10 nM against NDM-1.

As to `CC(NC(=O)Nc1ccc(CN)cc1)c1cccc2c(-c3ccc(CS(C)(=O)=O)c(F)c3)c(C(=O)O)[nH]c12` (stereo not drawn) [IC-102, 7-(1-(3-(4-(aminomethyl)phenyl)ureido)ethyl)-3-(3-fluoro-4-((methylsulfonyl)methyl)phenyl)-1H-indole-2-carboxylic acid], the IC50 was 1 to 10 nM on VIM-2 (setting [3]), over 10 nM at VIM-1 (setting [4]), over 10 nM on IMP-1 (setting [5]) and 1 to 10 nM at NDM-1 (setting [6]).

Regarding `C/C(=C\C(=O)NCCc1c[nH]cn1)c1cccc2c(-c3ccc(CS(C)(=O)=O)c(F)c3)c(C(=O)O)[nH]c12` [IC-103, 3-[3-Fluoro-4-(methanesulfonylmethyl)phenyl]-7-[(1E)-1-{[2-(1H-imidazol-4-yl)ethyl]carbamoyl}prop-1-en-2-yl]-1H-indole-2-carboxylic acid], the IC50 at VIM-2 (setting [3]), at VIM-1 (setting [4]), at IMP-1 (setting [5]) and at NDM-1 (setting [6]) was over 10 nM each time. The “MIC values EC NDM-1” value in the data set with Escherichia coli NDM-1 is listed as “C (C = MIC values > 8)”. Further, the “MIC values EC NDM-7” value in the data set with Escherichia coli NDM-7 is recorded as “C (C = MIC values > 8)”. In addition, in data set [2], the “MIC values AB NDM-1” value is listed as “C (C = MIC values > 8)”.

On to `C/C(=C\C(=O)N1CCOCC1)c1cccc2c(-c3ccc(CS(C)(=O)=O)c(F)c3)c(C(=O)O)[nH]c12` [IC-105, 3-[3-Fluoro-4-(methanesulfonylmethyl)phenyl]-7-[(2E)-4-(morpholin-4-yl)-4-oxobut-2-en-2-yl]-1H-indole-2-carboxylic acid], for which the IC50 on VIM-2 (setting [3]), on VIM-1 (setting [4]), on IMP-1 (setting [5]) and on NDM-1 (setting [6]) was over 10 nM each time. Moreover, the “MIC values EC NDM-1” value in the data set with Escherichia coli NDM-1 is reported as “C (C = MIC values > 8)”. Moreover, in the data set on Escherichia coli NDM-7, the “MIC values EC NDM-7” value was “C (C = MIC values > 8)”. Also, the “MIC values AB NDM-1” value in data set [2] is reported as “C (C = MIC values > 8)”.

On to `C[C@@H](c1cccc2c(-c3ccc(CS(C)(=O)=O)c(F)c3)c(-c3nnn[nH]3)[nH]c12)N1C[C@]2(C[C@@H](CN)C2)OC1=O` [IC-107, (2S,4r)-2-(Aminomethyl)-7-((S)-1-(3-(3-fluoro-4-((methylsulfonyl)methyl)phenyl)-2-(1H-tetrazole-5-yl)-1H-indol-7-yl)ethyl)-5-oxa-7-azaspiro[3.4]octan-6-one], for which the IC50 is over 10 nM at VIM-2 (setting [3]), 1 to 10 nM at VIM-1 (setting [4]), over 10 nM on IMP-1 (setting [5]) and 1 to 10 nM on NDM-1 (setting [6]).
